Results from paper PMC3921447, “Homologous and heterologous desensitization of guanylyl cyclase-B signaling in GH3 somatolactotropes” (Cell and Tissue Research, 2013).

Assays:
[1] = target: T1, GC-B (Rattus norvegicus, UniProt P16067); test: GC-B protein expression by Western blot in GH3 cells; type: cell-based; conditions: 100 nM CNP, up to 24 h; n = 3; Fig. 4b
T1 construct: rapid homologous desensitization of endogenous GC-B receptors in GH3 cells; endogenous in cells; host or cells: GH3 rat somatolactotrope cells
T1 sequence (P16067 17-1047): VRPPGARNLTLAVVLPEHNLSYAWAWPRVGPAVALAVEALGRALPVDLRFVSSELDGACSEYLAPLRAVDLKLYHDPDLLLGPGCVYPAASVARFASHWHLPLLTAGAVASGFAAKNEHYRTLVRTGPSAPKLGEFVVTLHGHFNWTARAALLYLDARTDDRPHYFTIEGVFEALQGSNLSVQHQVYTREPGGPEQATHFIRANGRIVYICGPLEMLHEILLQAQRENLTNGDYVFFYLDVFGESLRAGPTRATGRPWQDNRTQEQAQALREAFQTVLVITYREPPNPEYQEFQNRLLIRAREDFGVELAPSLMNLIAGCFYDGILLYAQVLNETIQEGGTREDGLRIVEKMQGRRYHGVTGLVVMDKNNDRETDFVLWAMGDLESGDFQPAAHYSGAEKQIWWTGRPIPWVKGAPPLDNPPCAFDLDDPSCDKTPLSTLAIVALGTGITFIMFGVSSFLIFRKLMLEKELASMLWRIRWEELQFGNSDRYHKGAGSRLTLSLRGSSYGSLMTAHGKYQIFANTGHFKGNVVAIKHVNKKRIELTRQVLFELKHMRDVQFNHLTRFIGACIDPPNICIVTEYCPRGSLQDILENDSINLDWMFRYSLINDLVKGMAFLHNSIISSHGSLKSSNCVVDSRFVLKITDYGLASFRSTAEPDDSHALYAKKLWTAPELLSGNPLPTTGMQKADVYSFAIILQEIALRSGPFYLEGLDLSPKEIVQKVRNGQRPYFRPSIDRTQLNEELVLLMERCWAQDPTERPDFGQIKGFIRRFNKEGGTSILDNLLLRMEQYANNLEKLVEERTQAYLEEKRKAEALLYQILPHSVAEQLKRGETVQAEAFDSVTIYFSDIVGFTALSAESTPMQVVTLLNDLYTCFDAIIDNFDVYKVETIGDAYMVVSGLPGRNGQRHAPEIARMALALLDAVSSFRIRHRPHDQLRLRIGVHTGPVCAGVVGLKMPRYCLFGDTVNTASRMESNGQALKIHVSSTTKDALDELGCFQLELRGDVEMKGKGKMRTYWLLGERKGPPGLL
Protocol: GH3 cell lysates (from 1 × 10^6 cells) were prepared in lysis buffer (0.5 M TRIS pH 6.8, 10 % [v/v] glycerol, 1 % [w/v] SDS). Protein lysates were sonicated, boiled at 95 °C for 5 min, resolved by 10 % SDS-polyacrylamide gel electrophoresis, transferred to polyvivylidene difluoride membrane and probed for GC-B (1:2000 dilution) or β-actin (1:5000 dilution) expression. Appropriate horseradish-peroxidase-conjugated secondary antibodies were purchased from DAKO.
We next examined whether Npr2 or GC-B down-regulation (as determined by a reduction in Npr2 mRNA expression and or GC-B protein expression) mediated the inhibitory effects of sustained CNP exposure. The effect of CNP exposure on the expression of the endogenous Npr2 gene was examined by using qPCR. […] To establish whether down-regulation occurred at the protein level, total proteins were extracted from GH3 cells incubated for up to 24 h with 100 nM CNP.
Fig. 4 CNP fails to alter expression of Npr2 mRNA or GC-B protein in GH3 somatolactotrope cells. a GH3 cells were stimulated with 0 or 100 nM CNP for 24 h prior to extraction of total RNA, cDNA synthesis, and quantitative PCR for endogenous Npr2 expression. […] Blots were stripped and re-probed for β-actin. Panels are representative of three independent experiments (n = 3)

[2] = tested on: Npr2; test: Npr2 mRNA expression by qPCR in GH3 cells; type: cell-based, rat; conditions: 100 nM CNP, 24 h; n = 3; Fig. 4a
Protocol: Total RNA was extracted from 1 × 10^6 GH3 cells or from male Sprague Dawley rat pituitaries by using Tri-reagent (Sigma-Aldrich, Poole, UK) and subjected to DNase treatment (Qiagen, Manchester, UK) before generation of first-strand cDNA (Applied Biosystems, Warrington, UK). Polymerase chain reaction (PCR) was performed for a range of targets for 30 cycles by using the primers and conditions published previously (Thompson et al. [2009]). In some instances, GH3 cells were treated with 0 or 100 nM CNP for 24 h prior to RNA extraction. These samples were processed for […] PCR (qPCR) analyses with commercially available rat Npr2 and 18S primer sets (Qiagen, Manchester, UK) under standard SYBR conditions as described previously (Bayol et al. [2010]).
We next examined whether Npr2 or GC-B down-regulation (as determined by a reduction in Npr2 mRNA expression and or GC-B protein expression) mediated the inhibitory effects of sustained CNP exposure. The effect of CNP exposure on the expression of the endogenous Npr2 gene was examined by using qPCR. […]
Fig. 4 CNP fails to alter expression of Npr2 mRNA or GC-B protein in GH3 somatolactotrope cells. a GH3 cells were stimulated with 0 or 100 nM CNP for 24 h prior to extraction of total RNA, cDNA synthesis, and quantitative PCR for endogenous Npr2 expression. […]

[3] = target: T1, GC-B; test: CNP time-course of total cGMP accumulation (rapid homologous desensitization) in GH3 cells; type: cell-based; conditions: 100 nM CNP, 1 mM IBMX, n = 3 in triplicate
Protocol: To characterize the activity of these receptors further , a series of experiments was performed to examine mechanisms of receptor desensitization. Total cGMP accumulation was measured to determine the changes in activity of the GC-A and GC-B receptors when treated over a short time-course with their native ligands, namely ANP and CNP, respectively. GH3 cells were plated at 3 × 10^5 cells/well in a 24-well plate, treated with 100 nM of either ANP or CNP in the presence of the phosphodiesterase inhibitor IBMX (1 mM) for 0 to 15 min and assayed for total cGMP concentration (Fig. 2a, b). […] In another experiment performed with 100 nM ANP instead of CNP, a rapid increase in cGMP accumulation (7.91 ± 0.9 to 164.31 ± 9.1pmol/ml per milligram protein) occurred between 0 and 5 min.
Fig. 2 Rapid homologous desensitization of CNP-dependent but not ANP-dependent cGMP accumulation in GH3 cells. Cells were treated with PSS containing either (a) 100 nM CNP or (b) 100 nM ANP for 0–15 min in the presence of 1 mM IBMX.

[4] = tested on: GC-A; conditions: ref Suga et al. [1992]; cited from earlier work
Source text: (§1) As activation of either GC-B or GC-A signaling leads to an increase in cGMP concentrations, we examined whether stimulation of each receptor would lead to the desensitization of the other receptor.

[5] = tested on: αT3-1 cells; conditions: ref Fowkes et al. [2000]; cited from earlier work
Source text: as §1

With `CC[C@H](C)[C@@H]1NC(=O)[C@H](CCCNC(=N)N)NC(=O)[C@H](CC(=O)O)NC(=O)[C@H](CC(C)C)NC(=O)[C@H](CCCCN)NC(=O)[C@H](CC(C)C)NC(=O)CNC(=O)[C@H](Cc2ccccc2)NC(=O)[C@@H](NC(=O)CNC(=O)[C@H](CCCCN)NC(=O)[C@H](CO)NC(=O)[C@H](CC(C)C)NC(=O)CN)CSSC[C@@H](C(=O)O)NC(=O)CNC(=O)[C@H](CC(C)C)NC(=O)CNC(=O)[C@H](CO)NC(=O)[C@H](CCSC)NC(=O)[C@H](CO)NC(=O)CNC1=O` [CNP, C-type natriuretic peptide] as the compound, how does the GC-B protein expression [1] read?
The GC-B protein expression was “failed to alter expression levels”.

And the “Npr2 mRNA expression” value [2]?
Its value is “failed to alter Npr2 expression in GH3 cells”.

And the “total cGMP accumulation, 0 min” value ([3]; 0 min (start of time-course), mean ± SEM)?
The value was 6.4 ± 0.7 pmol/ml per milligram protein.

And the “rate of cGMP accumulation between 5 to 15 min as % of the initial rate (0 to 5 min)” value ([3]; ***P < 0.001)?
The value was 22.2 ± 3.9%.

What about the “total cGMP accumulation, 5 min” value ([3]; 5 min, mean ± SEM) of the same compound?
Its value is 82.7 ± 15.5 pmol/ml per milligram protein.

And the “total cGMP accumulation, 15 min” value ([3]; 15 min, mean ± SEM)?
The value was 117.4 ± 17.6 pmol/ml per milligram protein.

What about the “activation of the reciprocal receptor” value [4] of the same compound?
The value was “can activate the reciprocal receptor, albeit only at pharmacological concentrations”.

And the “desensitization of the other receptor” value [5]?
Its value is “fail to desensitize the other receptor”.
